For one data set, the target named is Human KLKB1 (Homo sapiens (Human), UniProt P03952). The data set can be described thus: KLKB1 kallikrein activity inhibition assay (chromogenic substrate S-2302). In kind it is biochemical. In outline: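 Enzyme at a final 3 nM was assayed in 0.05 M Tris pH 7.4, 0.01 M NaCl and 0.2% PEG-8000 at room temperature, with compounds as ten-point threefold dilutions.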

Data set [1] concerns the target Recombinant human tissue kallikrein (KLK1) (Homo sapiens (Human), UniProt P06870). The data set can be described thus: KLK1 kallikrein activity inhibition assay (Pro-Phe-Arg-AMC substrate). In kind it is biochemical. On the procedure: The KLK1 kallikrein activity reported herein (e.g., Tables B and C) was obtained as follows. Recombinant human tissue kallikrein (KLK1) was obtained from R&D Systems. […] KLK1 enzyme is activated by incubating 0.5 mg/ml KLK1 combined with 0.1 μg/ml thermolysin in a buffer of 0.05 M Tres (pH 7.5), 0.15 M NaCl, and 0.01 M CaCl2 for one hour at 37° C. The thermolysin is then deactivated by the addition of equal parts 20 mM 1, 10 phenanthroline solution in water. The activated KLK1 solution is then added to CHES buffer (0.05 M CHES, 0.15 M NaCl, 0.01 M CaCl2, pH 10) for a final concentration of 5 nM along with the test article and incubated for 10 minutes. […] Substrate activation is read 10 minutes after substrate addition using a Synergy H1 multifunction plate reader (Biotek) programmed with a 360 nm excitation wavelength and a 480 nm emission wavelength. Inhibitor response was established by adding test compound as ten point, three-fold serial dilutions, as known in the art. The IC50 was calculated by plotting the percent (%) inhibition against compound concentration and fitting the data to a constrained four parameter sigmoidal curve, as known in the art.

Data set [2] is described as follows: Trans-corneal permeability in vitro across excised rabbit corneas (Franz chamber). Type of data set: in vitro ADME. As to conditions: excised rabbit cornea, compound in PBS, 37° C., four hours. The procedure:
In this example, trans-corneal permeability of compounds are measured in-vitro across excised rabbit corneas. Excised rabbit cornea are acquired from Pel-Freez and delivered in DMEM culture media on ice overnight. The test apparatus is a curved 9 mm Franz chamber (Permegear) suitable for rabbit eyes. Test compound is prepared in PBS buffer. The compound solution is added to the donor chamber of the Franz chamber and the entire apparatus placed in an incubator at 37° C. for four hours. During incubation and at every subsequent hour, a sample is removed from the receiver chamber and analyzed by HPLC (Shimadzu Prominence) using a C18 column (Phenomenex 00E-4605-E0) in reverse phase with acetonitrile in water. The apparent permeability coefficient Papp (cm/s) is calculated as
where dM/dt is the flux (nmol/s) across the cell layers or cornea, A is the exposed surface area (cm^2) of the insert membrane of rabbit cornea, and C0 is the initial drug concentration (μM) in the donor compartment.

Data set [3] can be described thus: Pharmacokinetics in mice (i.v. and p.o.). As to conditions: male, CD-1, mouse, in vivo. In kind it is in vivo, male CD-1 mice. The procedure: Each compound is administered intravenously (i.v.) as a single dose via tail vein or orally (p.o.) as a single dose via gastric gavage to male CD-1 mice of nominal weights between 20 g and 26 g. Nominal doses are 1 mg/kg and 5 mg/kg for i.v. and p.o., respectively. In some examples (dose type A), both p.o. and i.v. doses are prepared by dissolving the test compound in 5% dimethyl acetamide and diluted in tetraethylene glycol for a final concentration of 0.25 mg/mL. In other examples (dose type B), i.v. doses are prepared by dissolving test compounds in 20% dimethyl acetamide, 40% polyethylene glycol 300 and 40% phosphate buffered saline, and p.o. doses are prepared by dissolving test compounds in carboxymethyl cellulose suspension (1% by weight) in water and 2.5% dimethyl acetamide.
Animals are housed in standard holding cages with food and water available ad libitum except for animals used for p.o. dosing which are fasted overnight prior to dosing. Samples are taken in triplicate via cardiac puncture at times prior to dosing and at 0.083 (i.v. only), 0.25, 0.5, 1, 2, 4, 8, and 24 hours after administration. Plasma is obtained by centrifuge and stored frozen until analyzed by LC-MS/MS using a Shimadzu VP System HPLC coupled to a Applied Biosystems MDS SCIEX API 3000 triple quadrapole MS. Assay results are calibrated using reference samples prepared in a range between 1.5 and 5000 ng/mL.
Pharmacokinetic parameters are calculated from mean concentration values using a non-compartmental analysis as described in the following and as apparent to those of ordinary skill in the art. Half-lives (t1/2) and elimination rate constants (λ) are determined by log linear regression using equal weighting on the last three finite sample time points. Concentration at time zero (C0) for the i.v. data is established by the extrapolation of log linear regression using equal weighting on the first three sample time points. Area under the curve (AUC) values are calculated using linear trapezoidal integration. Systemic clearance (CL) is calculated as the ratio of dosage and AUC. […] Percent oral bioavailability (% F) is determined from the ratio of i.v. and p.o. AUC values weighted by dosage.

The next data set has as its target Human thrombin (Homo sapiens (Human), UniProt P00734). Put plainly: Thrombin protease activity inhibition assay (chromogenic substrate S-2238). In kind it is biochemical. Conditions: 3 nM thrombin, 125 μM S-2238, 10 min pre-incubation, RT. In outline: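 Ten-point, three-fold serial dilutions of compound tested against 3 nM enzyme at RT in Tris buffer (0.05 M, pH 7.4) with 0.015 M NaCl and 0.01% PEG-8000.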

In another data set the test system is malignant breast tumors. Conditions: treated mice, cited from earlier work.

By IC50 is commonly meant the concentration at which inhibition is half-maximal. By Papp is commonly meant a coefficient for how fast a substance crosses the barrier. High values mean ready permeation, low ones poor permeation. For orientation: AUC means the area under the concentration-time curve, a measure of exposure. A higher AUC goes with high exposure. Usually half-life stands for the time in which the quantity being followed falls by half. In general, bioavailability refers to dose-corrected exposure relative to a reference, in per cent. Read a high bioavailability as good availability.

Human KLKB1, sequence (P03952 391-638 limits assumed): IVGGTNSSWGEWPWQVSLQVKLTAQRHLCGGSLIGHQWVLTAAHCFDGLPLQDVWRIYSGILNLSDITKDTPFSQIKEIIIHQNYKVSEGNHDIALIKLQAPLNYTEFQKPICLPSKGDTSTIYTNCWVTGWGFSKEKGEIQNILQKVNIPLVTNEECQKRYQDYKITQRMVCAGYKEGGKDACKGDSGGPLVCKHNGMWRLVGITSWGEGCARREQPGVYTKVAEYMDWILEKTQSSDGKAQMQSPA
Human KLKB1, sequence (P03952 20-390 partner limits assumed): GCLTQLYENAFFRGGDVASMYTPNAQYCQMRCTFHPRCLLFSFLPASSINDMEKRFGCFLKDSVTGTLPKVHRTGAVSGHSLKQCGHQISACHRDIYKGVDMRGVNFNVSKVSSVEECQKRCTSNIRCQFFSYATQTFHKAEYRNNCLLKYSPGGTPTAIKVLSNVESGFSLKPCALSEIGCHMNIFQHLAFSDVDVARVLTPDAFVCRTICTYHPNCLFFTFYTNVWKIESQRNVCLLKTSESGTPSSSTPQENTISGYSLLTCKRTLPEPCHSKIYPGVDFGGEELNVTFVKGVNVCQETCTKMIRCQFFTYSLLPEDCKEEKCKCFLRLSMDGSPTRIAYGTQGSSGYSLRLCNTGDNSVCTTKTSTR
Recombinant human tissue kallikrein (KLK1), sequence (P06870 25-262): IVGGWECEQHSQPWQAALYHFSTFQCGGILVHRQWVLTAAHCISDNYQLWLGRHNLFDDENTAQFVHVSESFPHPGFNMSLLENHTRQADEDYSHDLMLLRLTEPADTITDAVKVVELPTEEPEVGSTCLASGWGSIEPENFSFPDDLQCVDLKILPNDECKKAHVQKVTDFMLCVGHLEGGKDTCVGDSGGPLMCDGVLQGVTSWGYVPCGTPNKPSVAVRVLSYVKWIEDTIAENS

At Human KLKB1 (Table B), `O=C(c1ccoc1)n1nc(-c2ccc[nH]c2=O)cc1NCc1ccc(Cl)s1` [Cmpd 4, 3-(5-[(5-chlorothiophen-2-yl)methyl]amino-1-[(furan-3-yl)carbonyl]-1H-pyrazol-3-yl)-1,2-dihydropyridin-2-one] yielded an IC50 of 1 to 10 µM. In addition, in data set [1] (Table B), the concentration for half-maximal inhibition (IC50) was 10 to 100 µM. In data set [2], this molecule returned a Papp at 4 h of 2.5 ×10⁻⁶ cm/s. In data set [3] (iv, 1 mg/kg), this molecule gave an AUC of 100 ng·h/mL, a C0 of 300 ng/mL, a Vd of 10 L/kg and a clearance of 167 mL/min/kg. In data set [3] (iv, 1 mg/kg), this molecule gave a half-life of 60 min. In data set [3] (po, 5 mg/kg), this molecule showed an AUC of 300 ng·h/mL, a bioavailability of 60% and a half-life of 360 min.
As for `COc1ccccc1C(=O)n1nc(-c2ccccn2)nc1NCc1ccc(Cl)s1` [Cmpd 22], the results for the IC50 (against Human KLKB1 (Table C); in data set [1] (Table C)) were under 0.1 µM and 10 to 100 µM, respectively. In addition, in data set [2], the Papp at 4 h is 5.7 ×10⁻⁶ cm/s.
`Cn1cccc(-c2cc(NCc3ccc(Cl)s3)n(C(=O)c3ccoc3)n2)c1=O` [Cmpd 23, 3-(5-[(5-chlorothiophen-2-yl)methyl]amino-1-[(furan-3-yl)carbonyl]-1H-pyrazol-3-yl)-1-methyl-1,2-dihydropyridin-2-one] had an IC50 against Human thrombin of under 0.1 µM. This molecule yielded a 50% inhibitory concentration (IC50) on Human KLKB1 (Table B) of 1 to 10 µM. In addition, the IC50 in data set [1] (Table B) was in the range of 10 to 100 µM. Besides, in data set [3] (iv, 1 mg/kg), the AUC was found to be 100 ng·h/mL, the C0 is 400 ng/mL, the Vd amounted to 5 L/kg and the clearance was 133 mL/min/kg. In addition, in data set [3] (iv, 1 mg/kg), the half-life is 30 min. In data set [3] (po, 5 mg/kg), this molecule gave an AUC of 80 ng·h/mL, a bioavailability of 10% and a half-life of 36 min.
Regarding `O=C(c1ccoc1)n1nc(-c2cccn(Cc3ccccn3)c2=O)cc1NCc1ccc(Cl)s1` [Cmpd 25, 3-(5-[(5-chlorothiophen-2-yl)methyl]amino-1-[(furan-3-yl)carbonyl]-1H-pyrazol-3-yl)-1-(pyridin-2-ylmethyl)-1,2-dihydropyridin-2-one], the IC50 on Human thrombin was under 0.1 µM. The IC50 against Human KLKB1 (Table B) lay in the range of 0.1 to 1 µM. The IC50 in data set [1] (Table B) lay in the range of 10 to 100 µM. In data set [3] (iv, 1 mg/kg), this molecule had an AUC of 40 ng·h/mL, a C0 of 100 ng/mL, a Vd of 6 L/kg and a clearance of 167 mL/min/kg. In addition, the half-life in data set [3] (iv, 1 mg/kg) is 18 min. In data set [3] (po, 5 mg/kg), the AUC stood at 10 ng·h/mL, the bioavailability was found to be 9% and the half-life is over 18 min.
At Human thrombin, `O=C(c1ccoc1)n1nc(-c2cccn(Cc3ccco3)c2=O)cc1NCc1ccc(Cl)s1` [Cmpd 26, 3-(5-[(5-chlorothiophen-2-yl)methyl]amino-1-[(furan-3-yl)carbonyl]-1H-pyrazol-3-yl)-1-(furan-2-ylmethyl)-1,2-dihydropyridin-2-one] displayed an IC50 of under 0.1 µM. Moreover, the IC50 on Human KLKB1 (Table B) lay within 1 to 10 µM. The IC50 in data set [1] (Table B) was 10 to 100 µM. In data set [3] (iv, 1 mg/kg), this molecule had an AUC of 50 ng·h/mL, a C0 of 200 ng/mL, a Vd of 5 L/kg and a clearance of 167 mL/min/kg. In addition, in data set [3] (iv, 1 mg/kg), the half-life was 18 min. In data set [3] (po, 5 mg/kg), this molecule had an AUC of 20 ng·h/mL, a bioavailability of 8% and a half-life of over 18 min.
With `CCCCCCOC(=O)N=C(N)c1ccc(NCc2nc3cc(C(=O)N(CCC(=O)OCC)c4ccccn4)ccc3n2C)cc1` [dabigatran etexilate], the “reduction in tumor volume” value in the data set on malignant breast tumors (at 4 weeks) is reported as 50%. The “reduced tumor cells in the blood and liver micrometastases” value in the data set on malignant breast tumors is 50-60%.
